Results reported in ChEMBL document CHEMBL1126992, “The synthesis and biochemical evaluation of new A1 selective adenosine receptor agonists containing 6-hydrazinopurine moieties” (Bioorg Med Chem Lett, 1993).

Legend:
Adenosine receptor A1 = biological target: T1, Adenosine receptor A1 (Rattus norvegicus, UniProt P25099); test: Tested for inhibition of adenosine A1 receptor binding to rat brain
T1 sequence (P25099 whole entry): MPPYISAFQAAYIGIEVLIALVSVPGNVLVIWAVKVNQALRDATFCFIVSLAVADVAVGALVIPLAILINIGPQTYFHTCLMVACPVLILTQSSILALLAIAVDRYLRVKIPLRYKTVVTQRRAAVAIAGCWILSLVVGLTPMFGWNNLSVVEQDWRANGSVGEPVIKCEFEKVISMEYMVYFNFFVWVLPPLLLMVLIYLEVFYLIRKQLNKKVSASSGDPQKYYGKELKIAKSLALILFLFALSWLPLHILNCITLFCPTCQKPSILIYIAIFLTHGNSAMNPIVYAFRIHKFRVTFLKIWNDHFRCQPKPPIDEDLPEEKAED

Adenosine A2 receptor = Adenosine A2 receptor (Rattus norvegicus, UniProt P29276+P30543); test: Tested for inhibition of adenosine A2 receptor binding to rat brain
[1] = Partition coefficient (logP); type: physicochemical; details: octanol/water
Cavia porcellus [2] = species on record: Cavia porcellus; test: Tested for agonistic potency to inhibit contractile force in isolated guinea pig atria; type: functional
Cavia porcellus [3] = species on record: Cavia porcellus; test: Tested for agonistic potency to inhibit stimulated cAMP accumulation in isolated guinea pig heart; type: functional

Compound	Ki (Adenosine receptor A1)	Ki (Adenosine A2 receptor)	logP [1]	IC50 (Cavia porcellus [2])	IC50 (Cavia porcellus [3])
Nc1nc(NN2CCCCC2)c2ncn([C@@H]3O[C@H](CO)[C@@H](O)[C@H]3O)c2n1	30 nM	3320 nM	-0.55	–	–
OC[C@H]1O[C@@H](n2cnc3c(NC4CCCC4)nc(Cl)nc32)[C@H](O)[C@@H]1O	–	–	2.07	–	–
OC[C@H]1O[C@@H](n2cnc3c(NN4CCOCC4)nc(Cl)nc32)[C@H](O)[C@@H]1O	13.3 nM	1040 nM	0.11	–	–
OC[C@H]1O[C@@H](n2cnc3c(NN4CCCCC4)ncnc32)[C@H](O)[C@@H]1O	> 3000 nM	> 10000 nM	1.28	–	–
OC[C@H]1O[C@@H](n2cnc3c(NN4CCCCC4)nc(F)nc32)[C@H](O)[C@@H]1O	3.6 nM	1050 nM	0.35	1290 nM	3.8 nM
COC[C@@H]1CCCN1Nc1nc(Cl)nc2c1ncn2[C@@H]1O[C@H](CO)[C@@H](O)[C@H]1O	9.9 nM	564 nM	0.32	–	–
CSc1nc(NN2CCCCC2)c2ncn([C@@H]3O[C@H](CO)[C@@H](O)[C@H]3O)c2n1	390 nM	2825 nM	0.89	–	–
OC[C@H]1O[C@@H](n2cnc3c(NN4CCC(c5ccccc5)CC4)nc(Cl)nc32)[C@H](O)[C@@H]1O	11 nM	1200 nM	2.36	320 nM	2.5 nM
OC[C@H]1O[C@@H](n2cnc3c(NN4CCCCC4)nc(Cl)nc32)[C@H](O)[C@@H]1O	4.2 nM	1485 nM	0.79	580 nM	2.1 nM
CC1CCCC(C)N1Nc1nc(Cl)nc2c1ncn2[C@@H]1O[C@H](CO)[C@@H](O)[C@H]1O (stereo partly drawn)	4 nM	33 nM	1.38	–	–
COC[C@H]1CCCN1Nc1nc(Cl)nc2c1ncn2[C@@H]1O[C@H](CO)[C@@H](O)[C@H]1O	10.9 nM	459 nM	0.32	–	–
OC[C@H]1O[C@@H](n2cnc3c(NN4CCC(Sc5ccccc5)CC4)nc(Cl)nc32)[C@H](O)[C@@H]1O	0.9 nM	470 nM	2.62	640 nM	0.3 nM
OC[C@H]1O[C@@H](n2cnc3c(NN4CCC(Oc5ccccc5)CC4)nc(Cl)nc32)[C@H](O)[C@@H]1O	1.4 nM	1100 nM	2.05	190 nM	0.03 nM
OC[C@H]1O[C@@H](n2cnc3c(NN4CCCCC4)nc(Br)nc32)[C@H](O)[C@@H]1O	9.3 nM	1520 nM	0.89	–	–
OC[C@H]1O[C@@H](n2cnc3c(NN4CCCCCC4)nc(Cl)nc32)[C@H](O)[C@@H]1O	9.3 nM	1130 nM	1.42	–	–
O=S(=O)(c1ccccc1)C1CCN(Nc2nc(Cl)nc3c2ncn3[C@@H]2O[C@H](CO)[C@@H](O)[C@H]2O)CC1	17 nM	220 nM	–	320 nM	0.7 nM
CN1CCN(Nc2nc(Cl)nc3c2ncn3[C@@H]2O[C@H](CO)[C@@H](O)[C@H]2O)CC1	184 nM	> 30000 nM	0.11	–	–
OC[C@H]1O[C@@H](n2cnc3c(NN4CCN(c5ccccc5)CC4)nc(Cl)nc32)[C@H](O)[C@@H]1O	55 nM	5571 nM	1.42	–	–
OC[C@H]1O[C@@H](n2cnc3c(NN4CC=C(c5ccccc5)CC4)nc(Cl)nc32)[C@H](O)[C@@H]1O	6.1 nM	638 nM	2.28	2900 nM	1.1 nM
CCCOc1nc(NN2CCCCC2)c2ncn([C@@H]3O[C@H](CO)[C@@H](O)[C@H]3O)c2n1	400 nM	2700 nM	–	–	–
OC[C@H]1O[C@@H](n2cnc3c(NN4CCCC4)nc(I)nc32)[C@H](O)[C@@H]1O	13000 nM	57000 nM	1.42	–	–
OC[C@H]1O[C@@H](n2cnc3c(NN4CCCCC4c4ccccc4)nc(Cl)nc32)[C@H](O)[C@@H]1O (stereo partly drawn)	34 nM	17 nM	2.25	–	–
OC[C@H]1O[C@@H](n2cnc3c(NN4CCCC(Sc5ccccc5)C4)nc(Cl)nc32)[C@H](O)[C@@H]1O (mixture of isomers)	13 nM	1380 nM	2.89	–	–
OC[C@H]1O[C@@H](n2cnc3c(NN4CCCC(O)C4)nc(Cl)nc32)[C@H](O)[C@@H]1O (mixture of isomers)	11 nM	720 nM	-0.82	470 nM	4.6 nM
OC[C@H]1O[C@@H](n2cnc3c(NN4CCCC(Oc5ccccc5)C4)nc(Cl)nc32)[C@H](O)[C@@H]1O (mixture of isomers)	15 nM	1733 nM	1.88	4500 nM	4.8 nM
OC[C@H]1O[C@@H](n2cnc3c(NC4CCCC4)ncnc32)[C@H](O)[C@@H]1O [N6-CYCLOPENTYLADENOSINE]	–	321 nM	0.72	420 nM	0.6 nM
